Laboratory results as given in patent US5643947A, “ω-amino-α-phenylalkanonitrile derivatives” (G. D. Searle & Co., priority 1995, dated 1997).
Like-named read-outs stand apart in the source and are kept apart here.

Key:
[1] = tested on: femoral arterial circulation; experiment: Vasodilation in perfused hindlimb of anaesthetized dog; type: in vivo; settings: for VASODILATION score: 30 mcg/kg injected into perfused femoral artery, vs papaverine; for vasodilator activity compared with papaverine: 30 mcg/kg, in words
Description: The peripheral vasodilator activity of compounds of the invention was measured in anaesthetized dog at the femoral arterial circulation. For this procedure, the femoral artery (the collaterals of which were ligated) was perfused with a constant flow rate of blood taken from aorta. The perfusion pressure measured at the femoral artery varied as a function of the resistance of the perfused area. The test compounds in diluted solvents were directly injected in the system at a dose of 30 mcg/kg. With the blood circulation rate being maintained constant, vasodilation was thus measured by a decrease of the perfusion pressure, in comparison with the action of papaverine considered as standard. The vasodilator activity was rated as follows:
+: 1/3 of the papaverine activity.
++: 2/3 of the papaverine activity.
+++: activity equal to that of papaverine (i.e. 30 to 40 mm Hg).
++++: activity higher than that of papaverine.

[2] = tested on: spontaneously hypertensive rats; experiment: Antihypertensive activity in spontaneously hypertensive rats (SHR); type: in vivo, rat; settings: 60 mg/kg oral; for SHR score: systolic pressure up to 3 hours; for lowering of the systolic blood pressure: SHR
Description: The biological activity of the compounds of the invention was evaluated in vivo on spontaneous hypertensive rats. In this test, antihypertensive activity was tested by oral administration to non-anaesthetized, spontaneously hypertensive rats, on which the systolic arterial pressure was measured at the median coccygeal artery by means of a plethysmographic method [J. Roba, G. Lambelin, A. F. De Schaepdryver, Arch. Int. Pharmacodyn., 200, 182 (1972)]. The arterial pressure was measured every 30 minutes from two hours before to three hours after oral administration of 60 mg/kg of the test compounds or of a placebo (1% tragacanth gum mucilage). Only rats having a systolic pressure of 180 to 220 mmHg were used. Each compound was tested in two rats.
The antihypertensive effects were rated as follows:
+: reduction of 10 to 20 mm Hg.
++: reduction of 20 to 30 mm Hg.
+++: reduction of 30 to 40 mm Hg.
++++: reduction >40 mm Hg.

[3] = molecular target: T1, 5HT2 receptor (Rattus norvegicus, UniProt P14842); experiment: 5HT2 receptor binding, 3H-ketanserin, rat frontal cortex
T1 construct: frontal cortex preparations of rat; from tissue; host or cells: rat frontal cortex
Description: (§1) Methodological Data for In Vitro Binding Assay of Various Receptors
(§2) KD values (Dissociation Constant) were determined by Scatchard analysis. Ki values (Inhibition Constant) were calculated according to the Cheng and Prusoff equation, using IC50 values: [formula]

[4] = molecular target: T2, slow Ca^2+ channel binding sites (Cavia porcellus, UniProt O35505); experiment: Ca2+ receptor binding, 3H-nitrendipine competition; set-up: species or system guinea-pig; settings: for competition curve at slow Ca^2+ channel binding sites: 3H-nitrendipine competition, in words; for Ki: guinea-pig forebrain, 3H-nitrendipine 0.2 nM, pH 7.4, 25 °C, 90 min, read-out: CA2^+ BINDING pKi (converted)
T2 construct: forebrain; from tissue; host or cells: guinea-pig forebrain
Description: (§3) Receptor binding experiments were conducted under the experimental conditions described in Table III. ^3 H-nitrendipine is the radioligand of choice to determine, after competition at different concentrations, the affinity of compounds of the invention, for the slow Ca^2+ channel binding sites. […] After this in vitro biochemical testing, the compounds of the invention were tested for their CA^2+ antagonist properties on isolated organs. The method used was updated from M Spedding (Nauyn-Schmiedeberg's Arch. Pharmacol., 318, 234-240, 1982) and can be summarized as follows: Aorta rings from male rats were prepared and maintained in oxygenated Krebs solution at 37° C. The contractions were induced by 40 mM K+ in the absence or in the presence of the test compound. Each test compound was tested at least twice. […] The phasic and tonic parts of each response elicited by K+ were considered separately and were expressed in % of their corresponding controls. The IC50 values (from pIC50) were estimated by plotting the % response against the log of the concentrations.
as §1, §2

[5] = tested on: Aorta rings; experiment: Ca2+ antagonism on isolated rat aorta rings, contractions induced by 40 mM K+; type: cell-based; settings: for inhibition of phasic and tonic phases of the contractions: in words
Description: as §3, with “The method used was updated from M Spedding (Nauyn-Schmiedeberg's Arch. Pharmacol., 318, 234-240, 1982) and can be summarized as follows: Aorta rings from male rats were prepared and maintained in oxygenated Krebs solution at 37° C.” left out

[6] = molecular target: α1 -adrenergic receptor; experiment: α1-adrenergic receptor binding, 3H-WB4101, rat forebrain; settings: for α1 pKi: rat forebrain, 3H-WB-4101 1.6 nM, pH 7.4, 25 °C, 15 min, values marked (2) are estimated; for affinity for the α1 -adrenergic receptor: 3H-WB4101, rat forebrain, in words
Description: as §1, §2

[7] = Acute oral toxicity in mice; settings: mouse, in vivo, male mice, mortality over 15 days
Description: Compounds #1, #2 , #3, #4 and #7 were tested for acute toxicity. The acute toxicity was determined after oral administration of the test compound to mice. Compound to be tested was suspended in a 1% tragacanth gum mucilage and was administered by means of an intragastric tube to a group of three male mice per dose. The mortailty was recorded over a period of 15 days.

[8] = tested on: serotonin-2 (5-HT2) receptors of both blood vessels and brain; settings: DeFeudis 1989; cited from earlier work
[9] = tested on: calcium channel; settings: DeFeudis 1989; cited from earlier work
[10] = 37 °C, phasic part, read-out: AORTA/K+ pIC50 phasic (converted)
[11] = 37 °C, tonic part, read-out: AORTA/K+ pIC50 tonic (converted)
[12] = read-out: Concentration inhibiting the contractions by 50%

T2 sequence (O35505 whole entry): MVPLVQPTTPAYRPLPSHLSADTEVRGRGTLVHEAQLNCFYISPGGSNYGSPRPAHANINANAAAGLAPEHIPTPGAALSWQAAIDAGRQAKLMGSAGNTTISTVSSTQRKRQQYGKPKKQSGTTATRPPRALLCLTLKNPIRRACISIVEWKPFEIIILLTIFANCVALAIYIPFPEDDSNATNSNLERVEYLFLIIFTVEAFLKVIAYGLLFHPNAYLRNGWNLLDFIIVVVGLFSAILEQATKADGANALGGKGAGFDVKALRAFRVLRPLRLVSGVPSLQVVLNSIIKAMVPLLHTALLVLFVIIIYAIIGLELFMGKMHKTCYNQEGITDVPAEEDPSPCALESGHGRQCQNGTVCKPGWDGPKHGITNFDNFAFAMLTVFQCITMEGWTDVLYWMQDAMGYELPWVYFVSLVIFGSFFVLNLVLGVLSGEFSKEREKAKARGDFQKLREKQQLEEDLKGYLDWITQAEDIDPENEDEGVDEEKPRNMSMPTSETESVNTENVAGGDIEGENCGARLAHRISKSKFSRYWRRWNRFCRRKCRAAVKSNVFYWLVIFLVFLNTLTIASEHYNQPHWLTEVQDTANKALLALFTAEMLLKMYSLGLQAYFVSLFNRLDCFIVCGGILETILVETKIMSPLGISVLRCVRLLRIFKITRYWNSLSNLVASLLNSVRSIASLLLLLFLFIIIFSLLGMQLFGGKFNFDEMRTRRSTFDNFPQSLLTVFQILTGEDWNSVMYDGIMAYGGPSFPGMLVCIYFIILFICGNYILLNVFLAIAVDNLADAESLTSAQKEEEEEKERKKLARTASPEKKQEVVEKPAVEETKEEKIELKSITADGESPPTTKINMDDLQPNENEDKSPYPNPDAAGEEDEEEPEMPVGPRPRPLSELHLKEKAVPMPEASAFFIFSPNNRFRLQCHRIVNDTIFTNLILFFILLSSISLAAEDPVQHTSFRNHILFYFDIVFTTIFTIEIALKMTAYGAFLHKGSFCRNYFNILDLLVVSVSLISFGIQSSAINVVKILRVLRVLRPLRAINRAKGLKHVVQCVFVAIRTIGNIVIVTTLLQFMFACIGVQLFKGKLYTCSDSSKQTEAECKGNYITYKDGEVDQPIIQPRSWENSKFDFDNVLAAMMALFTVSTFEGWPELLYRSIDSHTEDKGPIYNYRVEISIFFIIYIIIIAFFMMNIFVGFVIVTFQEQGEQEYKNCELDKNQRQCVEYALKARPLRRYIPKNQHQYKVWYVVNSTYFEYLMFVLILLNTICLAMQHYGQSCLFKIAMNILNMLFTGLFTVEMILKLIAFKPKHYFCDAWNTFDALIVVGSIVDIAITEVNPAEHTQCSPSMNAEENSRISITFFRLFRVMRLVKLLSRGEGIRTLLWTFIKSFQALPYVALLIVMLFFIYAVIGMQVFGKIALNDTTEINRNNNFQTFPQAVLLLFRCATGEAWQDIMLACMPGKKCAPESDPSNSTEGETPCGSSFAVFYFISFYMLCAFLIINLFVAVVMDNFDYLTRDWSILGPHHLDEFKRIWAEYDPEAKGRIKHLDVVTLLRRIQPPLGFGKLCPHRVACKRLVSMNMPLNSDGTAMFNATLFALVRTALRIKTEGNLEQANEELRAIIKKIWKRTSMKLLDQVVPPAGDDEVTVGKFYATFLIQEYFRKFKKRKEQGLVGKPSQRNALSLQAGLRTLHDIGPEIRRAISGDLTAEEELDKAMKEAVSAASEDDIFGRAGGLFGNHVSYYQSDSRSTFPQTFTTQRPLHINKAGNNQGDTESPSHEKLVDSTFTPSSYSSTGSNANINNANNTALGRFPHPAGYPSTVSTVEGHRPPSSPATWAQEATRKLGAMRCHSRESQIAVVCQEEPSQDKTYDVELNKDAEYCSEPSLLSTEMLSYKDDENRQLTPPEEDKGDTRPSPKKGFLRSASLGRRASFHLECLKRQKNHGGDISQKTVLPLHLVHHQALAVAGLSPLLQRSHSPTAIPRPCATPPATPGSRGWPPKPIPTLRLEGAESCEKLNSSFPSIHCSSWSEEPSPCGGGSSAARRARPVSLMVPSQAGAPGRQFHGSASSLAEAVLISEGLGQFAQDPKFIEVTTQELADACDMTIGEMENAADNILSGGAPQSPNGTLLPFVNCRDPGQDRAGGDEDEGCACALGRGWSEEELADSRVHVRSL
T1 sequence (P14842 whole entry): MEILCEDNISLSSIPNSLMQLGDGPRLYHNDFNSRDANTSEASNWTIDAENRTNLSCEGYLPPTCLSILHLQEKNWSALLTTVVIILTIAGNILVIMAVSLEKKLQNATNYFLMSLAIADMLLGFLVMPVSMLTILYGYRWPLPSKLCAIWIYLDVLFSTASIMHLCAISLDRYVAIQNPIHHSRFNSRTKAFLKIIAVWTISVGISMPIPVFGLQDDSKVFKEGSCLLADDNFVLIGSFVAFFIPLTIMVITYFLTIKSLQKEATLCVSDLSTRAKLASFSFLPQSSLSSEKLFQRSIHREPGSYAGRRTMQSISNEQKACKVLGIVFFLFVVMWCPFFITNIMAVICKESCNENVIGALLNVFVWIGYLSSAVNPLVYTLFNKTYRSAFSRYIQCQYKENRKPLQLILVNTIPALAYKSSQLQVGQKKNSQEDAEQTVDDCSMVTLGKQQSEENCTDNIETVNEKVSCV

**Q.** With `CCCCCCCCN(C)CCCC(C#N)(c1ccc(OC)c(OC)c1)C(C)C` (centres unmarked) [Compound #1, 5-[(n-octyl)methylamino]-2-(3,4-dimethoxyphenyl) -2-isopropyl-valeronitrile] as the compound, how does the VASODILATION score [1] read?
**A.** ++++

**Q.** What about the “vasodilator activity compared with papaverine” value [1] of the same compound?
**A.** more active than papaverine

**Q.** And the SHR score [2]?
**A.** ++++ (reduction >40 mm Hg.)

**Q.** And the “lowering of the systolic blood pressure” value [2]?
**A.** more than 40 mm Hg

**Q.** And the Ki [3]?
**A.** 100 nM

**Q.** What about the “competition curve at slow Ca^2+ channel binding sites” value (“competition curve” below) [4] of the same compound?
**A.** does not reach the non-specific base-line

**Q.** And the IC50 [5, 10]?
**A.** 200 nM

**Q.** And the IC50 [5, 11]?
**A.** 200 nM

**Q.** What about the “inhibition of phasic and tonic phases of the contractions” value [5] of the same compound?
**A.** similarly inhibited

**Q.** What about the IC50 [5, 12] of the same compound?
**A.** 200 nM

**Q.** What about the “α1 pKi” value [6] of the same compound?
**A.** ≤ 6

**Q.** What about the LD50 at 360 h [7] of the same compound?
**A.** > 300 mg/kg

**Q.** With `CCCCCCCCCCN(C)CCCC(C#N)(c1ccc(OC)c(OC)c1)C(C)C` (centres unmarked) [compound 6, 5-[(n-decyl)methylamino]-2-(3,4-dimethoxyphenyl)-2-isopropylvaleronitrile] as the compound, how does the Ki [3] read?
**A.** 100 nM

**Q.** What about the “competition curve” value [4] of the same compound?
**A.** reaching the non-specific level

**Q.** And the Ki [4]?
**A.** 39.8 nM

**Q.** What about the IC50 ([5]; 37 °C, one value printed for phasic/tonic, read-out: AORTA/K+ pIC50 phasic/tonic (converted)) of the same compound?
**A.** ≥ 1000 nM

**Q.** What about the “α1 pKi” value [6] of the same compound?
**A.** < 6

**Q.** For `COc1ccc(C(C#N)(CCCN(C)CCCCCc2ccccc2)C(C)C)cc1OC` (centres unmarked) [compound 3, 5-[5-(phenylpentyl)methylamino]-2-(3,4-dimethoxyphenyl)-2-isopropylvaleronitrile], which VASODILATION score [1] is on record?
**A.** +++ (activity equal to that of papaverine (i.e. 30 to 40 mm Hg).)

**Q.** And the Ki [3]?
**A.** 10 nM

**Q.** And the “competition curve” value [4]?
**A.** reaching the non-specific level

**Q.** What about the Ki [4] of the same compound?
**A.** 251 nM

**Q.** And the “α1 pKi” value [6]?
**A.** ≤ 6

**Q.** What about the LD50 at 360 h [7] of the same compound?
**A.** 470 mg/kg

**Q.** For `CC(C)[C@@](C#N)(CCCN(C)CCc1ccccc1)c1ccccc1` [(S)-emopamil], which “action at serotonin-2 (5-HT2) receptors” value [8] is on record?
**A.** antagonist at serotonin-2 (5-HT2) receptors

**Q.** And the “calcium channel blocking activity” value [9]?
**A.** showing calcium channel blocking activity

**Q.** Which Ki [3] does the source give for `COc1ccc(C(C#N)(CCCN(C)CCCc2ccccc2)C(C)C)cc1OC` (centres unmarked) [compound 4] here?
**A.** 31.6 nM

**Q.** What about the “competition curve” value [4] of the same compound?
**A.** does not reach the non-specific base-line

**Q.** What about the “α1 pKi” value [6] of the same compound?
**A.** ≤ 6

**Q.** And the LD50 at 360 h [7]?
**A.** 540 mg/kg

**Q.** Which Ki [3] does the source give for `CCCCCCCCN(CCCC(C#N)(c1ccc(OC)c(OC)c1)C(C)C)Cc1ccccc1` (centres unmarked) [compound 5] here?
**A.** > 1000 nM

**Q.** And the “competition curve” value [4]?
**A.** reaching the non-specific level

**Q.** And the Ki [4]?
**A.** 501 nM

**Q.** And the “α1 pKi” value [6]?
**A.** ≤ 6

**Q.** For `CCOC(=O)C1=C(C)NC(C)=C(C(=O)OC)C1c1cccc([N+](=O)[O-])c1` (centres unmarked) [nitrendipine, reference compound], which Kd [4] is on record?
**A.** 0.2 nM

**Q.** Which VASODILATION score [1] does the source give for `COc1ccc(C(C#N)(CCCN(C)CCCCc2ccccc2)C(C)C)cc1OC` (centres unmarked) [Compound #2, 5-[(4-phenylbutyl)methylamino]-2-(3,4-dimethoxyphenyl)-2-isopropylvaleronitrile] here?
**A.** ++++

**Q.** What about the “vasodilator activity compared with papaverine” value [1] of the same compound?
**A.** more active than papaverine

**Q.** And the SHR score [2]?
**A.** ++++ (reduction >40 mm Hg.)

**Q.** What about the “lowering of the systolic blood pressure” value [2] of the same compound?
**A.** more than 40 mm Hg

**Q.** And the Ki [3]?
**A.** 100 nM

**Q.** And the “competition curve” value [4]?
**A.** does not reach the non-specific base-line

**Q.** What about the IC50 [5, 10] of the same compound?
**A.** 63.1 nM

**Q.** And the IC50 [5, 11]?
**A.** 100 nM

**Q.** What about the “inhibition of phasic and tonic phases of the contractions” value [5] of the same compound?
**A.** similarly inhibited

**Q.** What about the IC50 [5, 12] of the same compound?
**A.** 60 nM

**Q.** What about the “affinity for the α1 -adrenergic receptor” value [6] of the same compound?
**A.** display affinity for the α1 -adrenergic receptor

**Q.** What about the “α1 pKi” value [6] of the same compound?
**A.** 7

**Q.** And the LD50 at 360 h [7]?
**A.** 350 mg/kg

**Q.** Which results are given for `COc1ccc(C(C#N)(CCCN(C)CC=Cc2ccccc2)C(C)C)cc1OC` (centres unmarked) [compound 7]?
**A.** competition curve at slow Ca^2+ channel binding sites [4]: does not reach the non-specific base-line; affinity for the α1 -adrenergic receptor [6]: display affinity for the α1 -adrenergic receptor; α1 pKi [6]: 6.8; LD50 at 360 h [7]: > 1000 mg/kg

**Q.** With `CCCCCCCCNCCCC(C#N)(c1ccc(OC)c(OC)c1)C(C)C` (centres unmarked) [compound 8] as the compound, how does the Ki [3] read?
**A.** 158 nM

**Q.** And the “competition curve” value [4]?
**A.** reaching the non-specific level

**Q.** What about the Ki [4] of the same compound?
**A.** 126 nM

**Q.** What about the “affinity for the α1 -adrenergic receptor” value [6] of the same compound?
**A.** display affinity for the α1 -adrenergic receptor

**Q.** And the “α1 pKi” value [6]?
**A.** 6.7
